Experimental data taken from US20210284638A1 (Saint Louis University, priority 2018, published 2021).

Assays:
[1] = biological target: T1, Recombinant human integrin αVβ3 (Homo sapiens, UniProt P05106+P06756); assay: Solid Phase Receptor Assay for αVβ3 function; type: binding; settings: plate-bound human vitronectin; read-out: αVβ3 SPRA IC50
T1 construct: purchased R&D Systems 3050-AV
Method: C. […] Wells were washed 3 times with 150 μL TBS+ and then 150 μL of blocking buffer (TBS+ with 1% bovine serum albumin, Sigma A7906) was added. The plate was incubated for 1 hr at 37° C. and then washed 3× with TBS+ buffer. […] Compounds were diluted to 20 μM and then 1 μL was added to each well of the plate according to a standard template with each sample repeated in triplicate. After incubation for two hours at room temperature, the plate was washed 3× with 150 μL of TBS+ buffer. To each well, 50 μL of biotinylated anti-αV antibody (R&D Systems, BAF1219) at 0.5 μg/mL in TBS+/0.1% BSA were added and the plate covered and incubated for 1 hr at room temperature. After washing the plate 3× with 150 μL of TBS+ buffer, 50 μL of streptavidin-conjugated horseradish peroxidase (R&D Systems, DY998) diluted in TBS+ blocking buffer were added to the wells and the plate incubated for 20 min at room temperature. The plate was washed 3× with TBS+ buffer followed by 50 μL of TMB substrate (Sigma, T4444) added to each well in the dark and the plate was incubated for 25 min at room temperature. 25 μL of 1.0 M phosphoric acid was added as a stop solution and the plates were read at 450 nm using a Spectramax plate reader.

[2] = biological target: T2, Recombinant human integrin αVβ8 (Homo sapiens, UniProt P06756+P26012); assay: Solid Phase Receptor Assay for αVβ8 function; type: binding; settings: plate-bound human LAP; read-out: αVβ8 SPRA IC50
T2 construct: purchased R&D Systems 4135-AV
Method: F. Solid Phase Receptor Assay (SFRA) for αVβ8 Function
Wells were washed 3 times with 150 μL TBS+ and then 150 μL of blocking buffer (TBS+ with 1% bovine serum albumin, Sigma A7906) was added. The plate was incubated for 1 hr at 37° C. and then washed 3× with TBS+. […] Compounds were diluted to 20 μM and 1 μL was added to each well of the plate according to a standard template with each sample repeated in triplicate. After incubation for two hours at room temperature, the plate was washed 3× with 150 μL of TBS+. To each well, 50 μL of biotinylated anti-αV antibody (R&D Systems, BAF1219) at 1 μg/mL in TBS+/0.1% BSA were added and the plate was covered and incubated for 1 hr at room temperature. After washing the plate 3× with 150 μL of TBS+ buffer, 50 μL of streptavidin-conjugated horseradish peroxidase (R&D Systems, DY998) diluted in TBS+ blocking buffer were added to the wells and the plate incubated for 20 min at room temperature. The plate was washed 3× with TBS+ followed by 50 μL of TMB substrate (Sigma T4444) added to each well in the dark and the plate incubated for 10 min at room temperature. 25 μL of 1.0 M phosphoric acid was added as a stop solution and the plates were read at 450 nm using a Spectramax plate reader.

T2 sequence (P06756 31-992 limits assumed): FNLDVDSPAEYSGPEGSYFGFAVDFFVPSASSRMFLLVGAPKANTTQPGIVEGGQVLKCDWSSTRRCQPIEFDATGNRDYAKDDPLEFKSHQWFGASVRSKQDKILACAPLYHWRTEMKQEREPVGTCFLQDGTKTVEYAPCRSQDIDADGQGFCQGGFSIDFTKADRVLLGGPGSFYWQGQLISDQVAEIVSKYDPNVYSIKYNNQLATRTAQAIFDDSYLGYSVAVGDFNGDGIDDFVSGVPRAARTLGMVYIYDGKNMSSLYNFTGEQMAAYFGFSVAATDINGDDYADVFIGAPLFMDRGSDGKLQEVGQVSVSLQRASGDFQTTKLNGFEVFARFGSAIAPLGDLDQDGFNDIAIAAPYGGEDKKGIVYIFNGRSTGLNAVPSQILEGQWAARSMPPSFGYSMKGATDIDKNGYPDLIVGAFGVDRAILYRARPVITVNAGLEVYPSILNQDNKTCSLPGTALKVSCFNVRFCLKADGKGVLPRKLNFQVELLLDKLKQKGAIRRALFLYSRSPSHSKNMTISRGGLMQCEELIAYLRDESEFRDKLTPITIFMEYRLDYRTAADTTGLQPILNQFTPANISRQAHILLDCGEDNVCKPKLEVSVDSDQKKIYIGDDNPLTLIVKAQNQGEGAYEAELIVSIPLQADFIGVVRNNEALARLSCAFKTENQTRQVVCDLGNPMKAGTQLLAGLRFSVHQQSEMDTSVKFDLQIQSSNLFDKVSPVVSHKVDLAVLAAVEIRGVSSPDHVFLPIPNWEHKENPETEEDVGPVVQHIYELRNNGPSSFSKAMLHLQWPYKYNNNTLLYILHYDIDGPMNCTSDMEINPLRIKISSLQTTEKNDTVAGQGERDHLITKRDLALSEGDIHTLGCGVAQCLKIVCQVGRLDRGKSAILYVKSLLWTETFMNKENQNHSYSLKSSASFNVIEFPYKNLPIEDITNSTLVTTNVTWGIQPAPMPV
T2 sequence (P26012 43-684 limits assumed): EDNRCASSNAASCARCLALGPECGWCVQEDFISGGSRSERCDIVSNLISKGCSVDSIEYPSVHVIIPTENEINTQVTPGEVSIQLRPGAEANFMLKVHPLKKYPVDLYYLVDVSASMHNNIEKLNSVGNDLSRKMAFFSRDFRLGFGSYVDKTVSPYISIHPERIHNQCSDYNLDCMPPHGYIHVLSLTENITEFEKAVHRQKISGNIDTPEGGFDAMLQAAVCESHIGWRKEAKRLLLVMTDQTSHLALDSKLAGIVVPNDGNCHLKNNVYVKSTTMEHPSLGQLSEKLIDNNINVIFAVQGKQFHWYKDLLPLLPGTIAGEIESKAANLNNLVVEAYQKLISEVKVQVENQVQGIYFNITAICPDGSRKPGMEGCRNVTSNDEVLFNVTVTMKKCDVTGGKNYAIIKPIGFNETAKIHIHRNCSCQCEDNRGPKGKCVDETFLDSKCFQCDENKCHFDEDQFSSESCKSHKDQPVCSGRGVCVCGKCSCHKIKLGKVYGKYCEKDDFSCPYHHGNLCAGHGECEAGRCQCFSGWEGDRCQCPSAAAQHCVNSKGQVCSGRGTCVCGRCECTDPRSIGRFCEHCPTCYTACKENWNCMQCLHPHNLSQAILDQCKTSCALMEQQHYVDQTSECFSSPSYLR
T1 sequence (P06756 31-992 limits assumed): as the sequence (P06756 31-992 limits assumed) above
T1 sequence (P05106 27-718 limits assumed): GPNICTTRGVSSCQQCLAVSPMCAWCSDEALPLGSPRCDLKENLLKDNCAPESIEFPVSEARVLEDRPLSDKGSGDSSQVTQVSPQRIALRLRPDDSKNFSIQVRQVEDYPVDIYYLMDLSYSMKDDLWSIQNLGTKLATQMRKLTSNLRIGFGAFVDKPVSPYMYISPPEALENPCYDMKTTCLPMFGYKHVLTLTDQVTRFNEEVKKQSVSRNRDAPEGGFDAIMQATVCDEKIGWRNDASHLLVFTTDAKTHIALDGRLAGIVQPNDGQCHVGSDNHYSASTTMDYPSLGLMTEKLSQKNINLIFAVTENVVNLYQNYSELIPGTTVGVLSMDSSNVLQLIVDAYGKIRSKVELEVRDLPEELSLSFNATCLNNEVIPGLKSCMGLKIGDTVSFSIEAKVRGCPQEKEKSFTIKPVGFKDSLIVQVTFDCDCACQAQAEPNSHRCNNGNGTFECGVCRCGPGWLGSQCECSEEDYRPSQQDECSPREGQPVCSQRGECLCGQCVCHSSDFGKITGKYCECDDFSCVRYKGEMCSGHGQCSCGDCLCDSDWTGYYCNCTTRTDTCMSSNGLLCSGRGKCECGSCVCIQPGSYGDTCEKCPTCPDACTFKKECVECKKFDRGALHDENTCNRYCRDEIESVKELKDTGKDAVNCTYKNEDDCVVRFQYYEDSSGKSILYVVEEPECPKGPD

| SMILES | IC50 [1] [nM] | IC50 [2] [nM] |
| --- | --- | --- |
| O=C(O)CC(Cc1cc(OCCc2ccc3c(n2)NCCC3)[nH]n1)c1cccc(F)c1 (stereo not shown) [CC2, reference compound] | 3.1 | 680 |
| COCC1(c2cc(C(CC(=O)O)Cc3cc(OCCc4ccc5c(n4)NCCC5)n(C)n3)cc(C(C)(C)C)c2)CCOCC1 (stereo not shown) [Example 1, 3-[3-tert-butyl-5-[4-(methoxymethyl)tetrahydropyran-4-yl]phenyl]-4-[1-methyl-5-[2-(5,6,7,8-tetrahydro-1,8-naphthyridin-2-yl)ethoxy]pyrazol-3-yl]butanoic acid] | 48 | 27 |
| CC(C)c1cc(C#N)cc(C(CC(=O)O)Cc2cc(OCCc3ccc4c(n3)NCCC4)n(C)n2)c1 (stereo not shown) [Example 2, 3-(3-cyano-5-isopropylphenyl)-4-(1-methyl-5-(2-(5,6,7,8-tetrahydro-1,8-naphthyridin-2-yl)ethoxy)-1H-pyrazol-3-yl)butanoic acid trifluoroacetic acid] | 6 | 7 |
| Cn1nc(CC(CC(=O)O)c2cc(Br)cc(S(F)(F)(F)(F)F)c2)cc1OCCc1ccc2c(n1)NCCC2 (stereo not shown) [Example 3, 3-[3-bromo-5-(pentafluoro-sulfanyl)phenyl]-4-[1-methyl-5-[2-(5,6,7,8-tetrahydro-1,8-naphthyridin-2-yl)ethoxy]pyrazol-3-yl]butanoic acid] | 8 | 13 |
| CC(C)c1cc(C(C)C)cc(C(CC(=O)O)Cc2cc(OCCc3ccc4c(n3)NCCC4)n(C)n2)c1 (stereo not shown) [Example 4, 3-(3,5-diisopropylphenyl)-4-[1-methyl-5-[2-(5,6,7,8-tetrahydro-1,8-naphthyridin-2-yl)ethoxy]pyrazol-3-yl]butanoic acid] | 15 | 18 |
| Cn1nc(CC(CC(=O)O)c2cc(C(C)(C)C)cc(C(C)(C)C(F)(F)F)c2)cc1OCCc1ccc2c(n1)NCCC2 (stereo not shown) [Example 5, 3-(3-(tert-butyl)-5-(1,1,1-trifluoro-2-methylpropan-2-yl)phenyl)-4-(1-methyl-5-(2-(5,6,7,8-tetrahydro-1,8-naphthyridin-2-yl)ethoxy)-1H-pyrazol-3-yl) butanoic acid] | 140 | 20 |
| Cn1nc(CC(CC(=O)O)c2cc(C(C)(C)C)cc(C3(C(F)F)CC3)c2)cc1OCCc1ccc2c(n1)NCCC2 (stereo not shown) [Example 6, 3-(3-(tert-butyl)-5-(1-(difluoromethyl)cyclopropyl)phenyl)-4-(1-methyl-5-(2-(5,6,7,8-tetrahydro-1,8-naphthyridin-2-yl)ethoxy)-1H-pyrazol-3-yl)butanoic acid] | 120 | 15 |
| Cn1nc(CC(CC(=O)O)c2cc(C(C)(C)C)cc(C(C)(C)CO)c2)cc1OCCc1ccc2c(n1)NCCC2 (stereo not shown) [Example 7, 3-[3-tert-butyl-5-(2-hydroxy-1,1-dimethyl-ethyl)phenyl]-4-[1-methyl-5-[2-(5,6,7,8-tetrahydro-1,8-naphthyridin-2-yl)ethoxy]pyrazol-3-yl]butanoic acid] | 17 | 18 |
| Cn1nc(CC(CC(=O)O)c2cc(Cl)cc(C(C)(C)C#N)c2)cc1OCCc1ccc2c(n1)NCCC2 (stereo not shown) [Example 8, 3-(3-chloro-5-(2-cyanopropan-2-yl)phenyl)-4-(1-methyl-5-(2-(5,6,7,8-tetrahydro-1,8-naphthyridin-2-yl)ethoxy)-1H-pyrazol-3-yl)butanoic acid] | 3 | 3 |
| Cn1nc(CC(CC(=O)O)c2cc(C(C)(C)C)cc(C(C)(C)C#N)c2)cc1OCCc1ccc2c(n1)NCCC2 (stereo not shown) [Example 9, 3-[3-tert-butyl-5-(1-cyano-1-methyl-ethyl)phenyl]-4-[1-methyl-5-[2-(5,6,7,8-tetrahydro-1,8-naphthyridin-2-yl)ethoxy]pyrazol-3-yl]butanoic acid] | 38 | 8 |
| COc1c(C(C)(C)C)cc(C(CC(=O)O)Cc2cc(OCCc3ccc4c(n3)NCCC4)n(C)n2)cc1C(C)(C)C (stereo not shown) [Example 10, 3-(3,5-di-tert-butyl-4-methoxyphenyl)-4-(1-methyl-5-(2-(5,6,7,8-tetrahydro-1,8-naphthyridin-2-yl)ethoxy)-1H-pyrazol-3-yl)butanoic acid] | 410 | 92 |
| COc1c(C(CC(=O)O)Cc2cc(OCCc3ccc4c(n3)NCCC4)n(C)n2)cc(C(C)(C)C)cc1C(C)(C)C (stereo not shown) [Example 11, 3-(3,5-di-tert-butyl-2-methoxyphenyl)-4-(1-methyl-5-(2-(5,6,7,8-tetrahydro-1,8-naphthyridin-2-yl)ethoxy)-1H-pyrazol-3-yl)butanoic acid] | 13000 | 740 |
| COc1c(Br)cc(C(C)(C)C)cc1C(CC(=O)O)Cc1cc(OCCc2ccc3c(n2)NCCC3)n(C)n1 (stereo not shown) [Example 12, 3-(3-bromo-5-(tert-butyl)-2-methoxyphenyl)-4-(1-methyl-5-(2-(5,6,7,8-tetrahydro-1,8-naphthyridin-2-yl)ethoxy)-1H-pyrazol-3-yl)butanoic acid] | 90 | 17 |
| COc1cc(C(CC(=O)O)Cc2cc(OCCc3ccc4c(n3)NCCC4)n(C)n2)cc(C23CC4CC(CC(C4)C2)C3)c1OCc1ccccc1 (stereo not shown) [Example 13, 3-[3-(1-adamantyl)-4-benzyloxy-5-methoxy-phenyl]-4-[1-methyl-5-[2-(5,6,7,8-tetrahydro-1,8-naphthyridin-2-yl)ethoxy]pyrazol-3-yl]butanoic acid] | 31 | 540 |
| COc1cc(C(CC(=O)O)Cc2cc(OCCc3ccc4c(n3)NCCC4)n(C)n2)cc(C23CC4CC(CC(C4)C2)C3)c1OC (stereo not shown) [Example 14, 3-[3-(1-adamantyl)-4,5-dimethoxy-phenyl]-4-[1-methyl-5-[2-(5,6,7,8-tetrahydro-1,8-naphthyridin-2-yl)ethoxy]pyrazol-3-yl]butanoic acid] | 9 | 170 |
| Cn1nc(CC(CC(=O)O)c2cc3c(c(C(C)(C)C)c2)OCO3)cc1OCCc1ccc2c(n1)NCCC2 (stereo not shown) [Example 15] | 9 | 120 |
| Cn1nc(CC(CC(=O)O)c2cc3c(c(C(C)(C)C)c2)OCCO3)cc1OCCc1ccc2c(n1)NCCC2 (stereo not shown) [Example 16, 3-(8-(tert-butyl)-2,3-dihydrobenzo[b][1,4]dioxin-6-yl)-4-(1-methyl −5-(2-(5,6,7,8-tetrahydro-1,8-naphthyridin-2-yl)ethoxy)-1H-pyrazol-3-yl) butanoic acid] | 7 | 41 |
| Cn1nc(CC(CC(=O)O)c2cc(C(C)(C)C)ccc2Br)cc1OCCc1ccc2c(n1)NCCC2 (stereo not shown) [Example 17, 3-(2-bromo-5-(tert-butyl)phenyl)-4-(1-methyl-5-(2-(5,6,7,8-tetrahydro-1,8-naphthyridin-2-yl)ethoxy)-1H-pyrazol-3-yl)butanoic acid] | 930 | 110 |
| Cn1nc(CC(CC(=O)O)c2cc(C(C)(C)C)ccc2C#N)cc1OCCc1ccc2c(n1)NCCC2 (stereo not shown) [Example 18, 3-(5-(tert-butyl)-2-cyanophenyl)-4-(1-methyl-5-(2-(5,6,7,8-tetrahydro-1,8-naphthyridin-2-yl)ethoxy)-1H-pyrazol-3-yl)butanoic acid] | 56 | 3 |
| Cn1nc(CC(CC(=O)O)c2cc(C(C)(C)C)ccc2F)cc1OCCc1ccc2c(n1)NCCC2 (stereo not shown) [Example 19, 3-(5-(tert-butyl)-2-fluorophenyl)-4-(1-methyl-5-(2-(5,6,7,8-tetrahydro-1,8-naphthyridin-2-yl)ethoxy)-1H-pyrazol-3-yl)butanoic acid] | 6 | 58 |
